For series [1], the system named is in vitro bovine BBB model (primary bovine brain capillary endothelial cells supported by primary rat glial cells). Kind of series: In vitro BBB model transcytosis assay of MTf fragments and peptides. The series is classed as in vitro ADME.
The nature of series [2]: Tissue distribution of intact MTfp by LCMS. It is filed as in vivo, mouse (CD1).
For series [3], the system named is neurons (NeuN), astrocytes (GFAP), microglia (TMEM), lysosomes (LAMP1), early endosomes (EEA1). It is filed as in vivo. The note with it: mouse brain sections after IV Cy5-MTfp, 3D confocal.

As for DSSHAFTLDELR [MTfp], in series [1] (T = 120, abluminal compared to initial concentration), the “Abluminal vs. Total” value is 1.90%. Moreover, the “Abluminal vs. Luminal” value in series [1] (T = 120, measure of transcytosis efficiency) amounted to 2.41%. In series [2] (from 30-minute concentration), the “initial rate of transport, kidney” value was found to be 9.9 nM/min and the “initial rate of transport, liver” value is recorded as 7.3 nM/min. Further, in series [2] (slope of time vs concentration, 0 and 30-minute time points, protocol of Bickel), the “initial rate of transport into the brain” value is reported as roughly 2 nM/min. The “MTFp found in the early endosomes” value in series [3] (EEA1 marker) is “approximately 20%”. In addition, the “MTFp found in the lysosomes” value in series [3] (LAMP1 marker) was determined as 40%.
